Tests used:
[1] = molecular target: T1, High affinity nerve growth factor receptor (Homo sapiens, UniProt P04629); test: Inhibition of recombinant His-tagged human TRKA (441 to 796 residues) expressed in baculovirus expression system at 20 uM using 5-FAM-EEPLYWSFPAKKK-CONH2 as substrate preincubated for 1 hr followed by substrate addition in presence of ATP by mobility shift assay relative to control
Target sequence in this assay (P04629 33-796 limits assumed): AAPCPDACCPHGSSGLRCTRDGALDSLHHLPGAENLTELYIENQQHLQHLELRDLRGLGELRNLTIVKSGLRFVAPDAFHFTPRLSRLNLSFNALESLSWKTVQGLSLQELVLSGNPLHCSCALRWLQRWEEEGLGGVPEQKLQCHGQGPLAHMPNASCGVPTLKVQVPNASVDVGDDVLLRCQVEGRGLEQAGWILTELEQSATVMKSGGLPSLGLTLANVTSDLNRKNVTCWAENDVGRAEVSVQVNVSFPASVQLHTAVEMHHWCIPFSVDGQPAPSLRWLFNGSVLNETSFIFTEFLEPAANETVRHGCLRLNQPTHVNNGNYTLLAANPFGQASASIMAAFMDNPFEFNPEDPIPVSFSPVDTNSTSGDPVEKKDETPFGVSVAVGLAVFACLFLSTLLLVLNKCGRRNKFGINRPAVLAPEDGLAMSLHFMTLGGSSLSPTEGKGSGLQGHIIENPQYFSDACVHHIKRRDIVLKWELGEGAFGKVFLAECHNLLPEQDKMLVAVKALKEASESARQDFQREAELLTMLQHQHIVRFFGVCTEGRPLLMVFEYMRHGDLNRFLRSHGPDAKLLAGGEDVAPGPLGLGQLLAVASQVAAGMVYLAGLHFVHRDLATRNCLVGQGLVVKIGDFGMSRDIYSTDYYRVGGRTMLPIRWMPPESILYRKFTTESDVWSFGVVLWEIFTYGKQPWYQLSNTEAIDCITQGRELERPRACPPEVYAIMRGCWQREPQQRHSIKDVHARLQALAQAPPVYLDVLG

KM12 = test: Cytotoxicity against human KM12 cells assessed as reduction in cell viability incubated for 72 hrs by resazurin based assay; format: functional; conditions: KM12, 72 h
[2] = molecular target: T1, High affinity nerve growth factor receptor; test: Inhibition of recombinant His-tagged human TRKA (441 to 796 residues) expressed in baculovirus expression system using 5-FAM-EEPLYWSFPAKKK-CONH2 as substrate preincubated for 1 hr followed by substrate addition in presence of ATP by mobility shift assay
Target sequence in this assay (P04629 whole entry, the tested form may be a part): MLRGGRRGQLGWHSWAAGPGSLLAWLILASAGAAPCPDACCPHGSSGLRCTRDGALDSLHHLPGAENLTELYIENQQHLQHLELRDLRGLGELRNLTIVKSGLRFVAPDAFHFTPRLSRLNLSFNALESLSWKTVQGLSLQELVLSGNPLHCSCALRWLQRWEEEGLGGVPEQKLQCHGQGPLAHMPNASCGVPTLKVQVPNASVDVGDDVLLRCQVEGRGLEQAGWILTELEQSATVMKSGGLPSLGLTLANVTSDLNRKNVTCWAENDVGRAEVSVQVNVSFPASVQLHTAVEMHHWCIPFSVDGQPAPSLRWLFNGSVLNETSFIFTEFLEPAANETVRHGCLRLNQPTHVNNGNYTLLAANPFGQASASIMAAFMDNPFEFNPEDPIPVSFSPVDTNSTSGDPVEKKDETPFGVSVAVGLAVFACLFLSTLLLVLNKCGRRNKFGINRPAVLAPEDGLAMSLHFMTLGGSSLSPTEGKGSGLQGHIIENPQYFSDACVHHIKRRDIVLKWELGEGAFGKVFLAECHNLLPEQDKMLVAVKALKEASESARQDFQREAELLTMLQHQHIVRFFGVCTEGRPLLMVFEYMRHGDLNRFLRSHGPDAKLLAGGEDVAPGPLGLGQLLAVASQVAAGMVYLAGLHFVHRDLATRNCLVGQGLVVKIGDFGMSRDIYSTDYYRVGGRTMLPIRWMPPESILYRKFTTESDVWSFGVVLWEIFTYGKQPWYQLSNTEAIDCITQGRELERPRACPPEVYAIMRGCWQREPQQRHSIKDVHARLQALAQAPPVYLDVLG

Compound | inhibition [1] [%] | IC50 (KM12) [µM] | IC50 [2] [µM]
O=C(c1ccc(Nc2ncnc3ccsc23)cc1)N1CCCCC1 | 16.5 | 150 | –
O=C(Cc1ccc(Nc2ncnc3ccsc23)cc1)N[C@@H]1CCCC[C@@H]1O | – | > 200 | 41.2
O=C(Cc1ccc(-c2ncnc3ccsc23)cc1)N[C@@H]1CCCC[C@H]1O | 18 | > 200 | –
Cn1nc(C(C)(C)C)cc1NC(=O)Cc1ccc(-c2ncnc3ccsc23)cc1 | 31.4 | 25.2 | –
CC(C)(C)c1cc(NC(=O)Cc2ccc(-c3ncnc4ccsc34)cc2)no1 | 18 | 86.5 | –
C#Cc1cccc(NC(=O)Cc2ccc(Nc3ncnc4ccsc34)cc2)c1 | – | 38.8 | 22.6
CS(=O)(=O)c1ccc(-c2cc3ncnc(Nc4ccc(CC(=O)Nc5ccc(F)c(Cl)c5)cc4)c3s2)cc1 | – | – | 200
